One series relates to cerebellar cells. In words: Cerebellar microexplant proliferation assay (BrdU). In kind it is cell-based, Wistar rat. The settings on record: p<0.01; SEQ ID NO: 1 at 1 pM, SEQ ID NO: 2 at 100 pM. As to the method: (§1) Laminated cerebellar cortices of the two hemispheres were explanted from a P3, P4, P7 or P8 Wistar rat, cut into small pieces in GBSS with 0.65% D(+)glucose solution, and triturated by a 0.4 mm gauge needle and subsequently pressed through a 125 μm pore size sieve. The obtained microexplants were centrifuged (60×g) 2 times for a medium exchange into serum-free BSA-supplemented START V-medium (Biochrom). Finally, the microexplants were reconstituted in 500 μl STARTV-medium. For culturing, 38 μl of the cell suspension was incubated for 1 hour on a poly-D-lysine-coated cover slip in a 35 mm Petri dish under an atmosphere comprising 5% CO2 in air and 100% humidity at 34° C. Subsequently, the injuring toxins (as described below), NRPs and 1 ml of STARTV-medium were added, and the cultures were evaluated after 2-3 days of culture.
Toxicological and drug administration experiments were designed such that 1/100 parts of toxin and neuroprotective drug were administered simultaneously to the freshly prepared cerebellar microexplants. Glutamate was prepared as a 50 mM stock solution in MilliQ water while 50 mM 3-nitropropionic acid was pH-adjusted (pH 6.8-7.2) in MilliQ water. The concentrations of the oxidative stress inducing toxin, 3-nitropropionic acid (3-NP), and the excitotoxin, glutamate, in the assay were 0.5 mM each. Lyophilized peptides were reconstituted in PBS or 100 μg/ml human transferrin as a 10 μM stock solution. Subsequently, serial dilutions were made. Cerebellar microexplants were cultivated for 48-72 hours at 34° C., 5% CO2 in air and 100% humidity before they were fixed by increasing amounts of paraformaldehyde (0.4%, 1.2%, 3% and 4%—each treatment 2-3 min).
Using the toxins described above, cerebellar explants were exposed for 24 hours, at the beginning of culturing to dilutions of NRP (survival assay) or NRP and 0.1 μM BrdU (proliferation assay). Subsequently, 80% of the medium was changed without addition of new toxins and NRPs. […]
For statistical analysis of proliferation BrdU-positive nuclei were counted. Statistical significance was measured by Student's t-test.

The nature of series [1]: Pyridoxine-induced peripheral neuropathy: weight loss. The settings on record: 4 μg/kg IP daily days 1 to 10. Format: in vivo, Sprague Dawley rats. On the procedure: (§2) Adult male Sprague Dawley P50 rats were divided into the vehicle (n=9) and NRP-treated (n=10) groups. The rats were killed with an overdose of sodium pentobarbiturate on the 24 day from the first administration of pyridoxine.
(§3) From day 1, all rats were injected intraperitoneally (IP), twice daily, with 350 mg/kg pyridoxine for 8 consecutive days. Pyridoxine (Sigma) solution for injections was made using the following proportions: 95 mg of pyridoxine and 41 mg sodium bicarbonate in 1 ml of water.
(§4) On days 1 to 10 the vehicle group (n=10) received one daily IP-injection of 24 mM sucrose and the rats in the NRP-treated group (n=10) received 4 μg/kg of NRP-5 segment GG analogue D4A (GRRAAPGRAGG-NH2; SEQ ID NO:2) diluted in 24 mM sucrose. Lyophilised NRP was stored in the presence of sucrose or alternatively in trehalose at room temperature. For every intraperitoneal (i.p.) injection, NRP-5 segment GG analogue D4A was reconstituted to 100 μM peptide concentration containing 0.5M sucrose/trehalose, further diluted with PBS to the actual working solution of 5 μg/ml NRP-5 segment GG analogue D4A (containing 24 mM sucrose). A rat with a body weight of 250 g was injected with 200 μl of the working solution.
Animals are weighed daily during the experimental timeframe of 24 days. According to the study protocol, animals showing weight loss of more than 15% body weight were immediately killed. One of the control animals was sacrificed on day 4 of the pyridoxine treatment (control n=9).

Series [2] has as its system peripheral neuropathy induced by pyridoxine. In words: Pyridoxine-induced peripheral neuropathy: motor impairment score. In kind it is in vivo, Sprague Dawley rats. On the procedure: as §2, §3
On days 1 to 10 the vehicle group (n=10) received one daily IP-injection of 24 mM sucrose and the rats in the NRP-treated group (n=10) received 4 μg/kg of NRP-5 segment GG analogue D4A (GRRAAPGRAGG-NH2; SEQ ID NO:2) diluted in 24 mM sucrose. Lyophilised NRP was stored in the presence of sucrose or alternatively in trehalose at room temperature. […]
Overall motor impairment was analysed by assessing the gait of each rat: 1) on a flat surface and 2) its ability to walk across a wooden beam. […]
If the animal walked with no difficulty whatsoever, it was scored as a “0.” If there appeared to be problems in its gait, it was placed on a raised wooden beam. […]

Series [3] shares this test system. Briefly: Pyridoxine-induced peripheral neuropathy: hind limb adduction test. The settings on record: end of the study. In kind it is in vivo, Sprague Dawley rats. On the procedure:
as §2, §3
as §4, with “A rat with a body weight of 250 g was injected with 200 μl of the working solution.” left out
Overall motor movement impairment was analysed by assessing the ability of each rat to adduct (i.e. keep its limbs close to the body) its hind limbs. […] These were scored as “0”. Rats that drew their hind limbs back after a slight delay were scored as “1”. […]

Series [4] shares this test system. In words: Pyridoxine-induced peripheral neuropathy: precision beam walk test. As to conditions: for beam walk score: 7-step walk total score. Format: in vivo, Sprague Dawley rats. As to the method:
as §2, §3, §4
The precision beam walk test was used to assess the animals' precise coordinated movement on days 13, 17 and 24. Briefly, animals were habituated once daily for 7 days before start of pyridoxine treatment on a 1.5 m long beam (with two longitudinal stripes indicating the median of the beam). On day 0 (one day before pyridoxine/NRP treatment) a baseline of motor behaviour on the beam was videotaped. […] All scores were added for the 7-step walk to receive a total score for one tested animal at a given time point. If the tested rat could only stand on the beam but was unable to not walk it was given the score of 30, and if it was unable to stand on the beam, it was scored as 32.

The subject of series [5] is experimental autoimmune encephalomyelitis (EAE) induced by MOG. Briefly: EAE model of multiple sclerosis, therapeutic treatment. The settings on record: score 0-6. Format: in vivo, mice, strain C57Bl/6J.
Series [6] shares this test system. In words: EAE model of multiple sclerosis, prophylactic treatment. In kind it is in vivo, mice, strain C57Bl/6J. As to conditions: for average clinical score / incidence of disease / mortality: 14 days from day 5.
A further series deals with cerebellar microexplants. Briefly: Cerebellar microexplant survival assay (3-NP/glutamate injury). Format: cell-based, Wistar rat. As to conditions: in this particular assay; concentration not given. On the procedure:
as §1
Toxicological and drug administration experiments were designed such that 1/100 parts of toxin and neuroprotective drug were administered simultaneously to the freshly prepared cerebellar microexplants. […]
For statistical analysis of survival, four fields (each field having an area of 0.65 mm^2) of each fixed cerebellar culture with the highest cell densities were chosen, and cells displaying neurite outgrowth were counted (survival assay).

For the next series, the system named is JAr cells. Briefly: TNF-alpha-induced cytotoxicity in immortalized trophoblast cell line. Format: cell-based, human. As to conditions: EGF 5 ng/ml. As to the method: Choriocarcinoma cells (Jeg-3, BeWo and Jar; ATCC) were cultured under similar conditions in DMEM/F-12 cell culture medium in 75 cm2 flasks with filter tops (Raylab). Cells were allowed to adhere and grow in an incubator equilibrated in 95%/5% air/CO2 to approximately 70% confluence, before being split every 2 to 3 days by addition of 2 ml of 1× concentrated trypsin-EDTA. After a centrifugation step for 5 min at 1100 rpm, cells were resuspended in 15 ml of fresh DMEM/F-12 in sterile tissue flasks and placed back in the incubator.
In this study, we plated 50,000 JAr cells per well. JAr cells are an immortalized line of cells derived from a human choriocarcinoma cells. Wells were pre-incubated with NRP-5RG D6A (SEQ ID NO: 1) at the concentrations indicated in FIG. 12, or epidermal growth factor (EGF; 5 ng/ml) for 2 hours. Subsequently, cells were exposed to the cultures for 48 hours to TNF-alpha (5 ng/ml) and interferon-gamma (5 ng/ml) to induce stress.

For series [7], the system named is primary human trophoblasts. In words: Trophoblast proliferation assay (BrdU incorporation). Format: cell-based. The settings on record: EGF 0.8×10^−9 M; 24 hrs; BrdU. As to the method: Cell proliferation was determined by BrdU incorporation to examine the effects of NRP-5RG D6A on the proliferation of trophoblasts. EGF (0.8×10^−9 M) was used as a positive control, since studies have previously shown it plays a role in enhancing trophoblast proliferation (Maruo et al., 1992).
Initially cells were treated with NRP-5RG D6A (SEQ ID NO: 1), EGF and BrdU (0.05 μM) for 72 hrs. After the first 24 hrs, an 80% media change was carried out since BrdU is toxic over long incubation periods. Following 72 hrs of incubation, the reaction was stopped by fixation in 4% PFA. However, with this experimental design, most trophoblasts would form syncytia by the end of the 72 hrs, hindering accurate examination of the proliferative effect of NRP-5RG D6A on trophoblasts. […] This allowed analysis of proliferation of mononuclear trophoblasts.
Cell proliferation was evaluated over 24 hrs after seeding 1.3×10^5 cells/cm^2 in culture media (1% serum) treated with 0.05 μM BrdU, NRP-5RG D6A and EGF (FIG. 13).
A general note: Uptake of a labelled nucleoside into DNA is a usual measure of proliferation.

Setting [8] is: 0.2 μg peptide/day (8.33 μg/kg) i.p.

Where no end group is shown, it is not given here.

Consider “GRRAAPGRAGG-NH2 (listed as Homo sapiens) [SEQ ID NO: 2, 11-mer analogue of NRP-5]”, for which the “proliferation compared against injured cells without NRP” value with cerebellar cells is given as “highly proliferation-inducing”. Moreover, in series [1], the initial weight loss is 3.7%. The “body weight versus vehicle-treated group” value in series [1] (day 8 until day 21) is reported as “significantly higher”. Also, the “body weight at the peak of weight loss” value in series [1] (day 10) is reported as 96.3+1.2 % of day 1 weight. The motor impairment score in series [2] (day 13 (peak of disease), score 0-3, 4 μg/kg IP daily days 1 to 10) is 0.60+0.52. Also, the motor impairment outcome in series [2] (day 24) is recorded as “recovered”. Besides, the “animals with no sign of hind limb adduction after manual manipulation” value in series [3] is recorded as 9 out of 10. Further, the “hind limb adduction score” value in series [3] (score 0-3, 4 μg/kg IP daily days 1 to 10) was 0.10+0.31. Moreover, in series [4] (day 13), the “rats that performed the 7-step walk” value was 6 out of 10 and the beam walk score is 23.50 ± 2.46. Also, in series [4] (day 17), the “animals that could perform the walk” value is “all but one” and the beam walk score is recorded as 21.70 ± 1.43. Also, in [4] (day 24), the “beam walk, difference between vehicle and NRP-treated group” value is recorded as “no longer a significant difference”.
“REGRRDAPGRAGG (listed as Homo sapiens) [SEQ ID NO: 3, 13-mer NRP-5 segment RG]”: the “mean clinical score after treatment” value in [5] (0.1 μg peptide/animal (4.16 μg/kg) i.p. daily for 14 days from peak of disease) turned out to be 1.16. In series [5] (peak of the disease (day 17 after MOG-immunization)), the “mean clinical score before treatment” value worked out at 2.61.
For the substance “SEPEARRAPGRKGGVVCASLAADW (listed as Mus musculus) [SEQ ID NO: 5, 24-mer NRP-7 SW]”, in [6] (setting [8]), the average clinical score result is “less than 0.5”, the incidence of disease is reported as 7 out of 9 and the mortality result is reported as “No animals died”. In series [6] (from day 12 onwards, 0.2 μg peptide/day i.p.), the “clinical score compared to saline control” value is on record as “significant attenuation in clinical score”.
“IGF-1: Neuroprotectant named as comparator in the cerebellar microexplant assay [reference compound]”: the “rescue values, protection” value in the series on cerebellar microexplants is given as “approximately 20%”.
In the case of “EGF: epidermal growth factor; proliferation-inducing peptide used as internal/positive control [reference compound]”, the “trophoblast proliferation in the absence of TNF-alpha injury” value in the series with JAr cells is “stimulated trophoblast proliferation”. In addition, in the series on JAr cells (2 hours pre-incubation), the “rescue of JAr cells from TNF-alpha-induced cytotoxicity” value was “weak effect”. In series [7], the “increase in trophoblast proliferation compared to control” value turned out to be 116.7±44%.
With “GTPGRAEAGGQVSPCLAASCSQAYG (listed as Homo sapiens) [SEQ ID NO: 4, 25-mer NRP-4 GG]”, in series [6] (1 ug peptide/day i.p.), the incidence of disease is 8 out of 10 and the mortality turned out to be 0. This substance registered an average clinical score in series [6] (day 27, 1 ug peptide/day i.p.) of 1.0. Besides, the “disease profile compared to saline control” value in series [6] (from 12 days onwards until day 27, 1 ug peptide/day i.p.) is reported as “significant attenuation of the disease profile”.

The record behind these values is US8138304B2, “Neural regeneration peptides and formulations thereof” (Neuren Pharmaceuticals Limited, priority 2005, dated 2012).
